# From patent publication US11773094B2, “Farnesoid X receptor agonists and uses thereof” (Metacrine, Inc., priority 2018, dated 2023)
# Biological target: T1, hFXR (Homo sapiens, UniProt Q96RI1)
# T1 construct: expressed in transfected cells; host or cells: CV-1 cells
# T1 sequence (Q96RI1 1-486): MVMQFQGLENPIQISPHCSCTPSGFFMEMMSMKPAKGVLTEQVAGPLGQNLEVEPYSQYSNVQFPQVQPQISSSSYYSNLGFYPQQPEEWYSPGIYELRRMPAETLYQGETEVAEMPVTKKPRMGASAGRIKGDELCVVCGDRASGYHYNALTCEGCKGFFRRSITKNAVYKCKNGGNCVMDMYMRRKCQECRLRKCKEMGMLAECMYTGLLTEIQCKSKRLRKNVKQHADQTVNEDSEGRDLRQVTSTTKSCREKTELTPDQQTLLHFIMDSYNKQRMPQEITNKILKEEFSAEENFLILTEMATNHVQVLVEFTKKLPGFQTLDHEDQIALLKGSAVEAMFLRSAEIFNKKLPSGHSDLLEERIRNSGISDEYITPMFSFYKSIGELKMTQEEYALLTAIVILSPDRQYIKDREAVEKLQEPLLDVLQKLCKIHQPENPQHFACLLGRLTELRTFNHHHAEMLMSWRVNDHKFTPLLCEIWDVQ
# T1 sequence (P19793 1-462 partner): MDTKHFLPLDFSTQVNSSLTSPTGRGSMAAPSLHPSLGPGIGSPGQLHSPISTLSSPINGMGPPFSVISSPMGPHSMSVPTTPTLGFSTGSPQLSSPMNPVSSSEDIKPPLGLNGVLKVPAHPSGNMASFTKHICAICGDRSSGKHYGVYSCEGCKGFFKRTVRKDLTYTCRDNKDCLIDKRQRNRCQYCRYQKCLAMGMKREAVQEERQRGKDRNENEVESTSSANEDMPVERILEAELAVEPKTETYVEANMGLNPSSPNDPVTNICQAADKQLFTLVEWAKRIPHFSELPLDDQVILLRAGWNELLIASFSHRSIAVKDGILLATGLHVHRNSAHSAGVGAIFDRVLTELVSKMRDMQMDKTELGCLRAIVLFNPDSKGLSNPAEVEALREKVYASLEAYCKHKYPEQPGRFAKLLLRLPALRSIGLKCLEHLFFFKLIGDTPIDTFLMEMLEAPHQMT
# Assay: In Vitro FXR Assay (TK): TK-ECRE-luc reporter in transfected CV-1 cells
# Format: cell-based
# Conditions: CV-1 cells transfected with hFXR, hRXR, pCMX-YFP, 18 hrs incubation, luminescence
# Outline: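 Reporter gene assay: CV-1 cells co-expressing hFXR, hRXR, TK-ECRE-luc and pCMX-YFP after overnight transfection in charcoal-stripped serum. Treatment with serially diluted compounds lasted 18 hrs at 37 °C, followed by cell lysis and a luminescence measurement.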
row,Compound,EC50 [nM]
1,"COc1ccc(C23CCC(CN(c4cc(-c5cnc(C(C)(C)C)s5)ccn4)C(=O)[C@H]4CC[C@H](OC(=O)N5CC(OCCO)C5)CC4)(CC2)CC3)cc1C [Compound 2.07, 4-((4-(2-(tert-Butyl)thiazol-5-yl)pyridin-2-yl)((4-(4-methoxy-3-methylphenyl)bicyclo[2.2.2]octan-1-yl)methyl)carbamoyl) (trans-cyclohexyl) 3-(2-hydroxyethoxy)azetidine-1-carboxylate]",≤ 10
2,"COc1ccc(C23CCC(CN(c4cc(-c5coc(C(C)(C)C)n5)ccn4)C(=O)[C@H]4CC[C@H](OC(=O)NCCC(C)(C)O)CC4)(CC2)CC3)cc1C [Compound 2.20, 4-((4-(2-(tert-Butyl)oxazol-4-yl)pyridin-2-yl)((4-(4-methoxy-3-methylphenyl)bicyclo[2.2.2]octan-1-yl)methyl)carbamoyl) (trans-cyclohexyl) (3-hydroxy-3-methylbutyl)carbamate]",≤ 10
3,"COc1ccc([C@H]2CC[C@H](CN(c3cc(-c4cnn(C(C)(C)C)c4)ccn3)C(=O)[C@H]3CC[C@H](OC(=O)N4CCC(O)CC4)CC3)CC2)cc1C [Compound 1.10, trans-4-((4-(1-(tert-Butyl)-1H-pyrazol-4-yl)pyridin-2-yl)((trans-4-(4-methoxy-3-methylphenyl)cyclohexyl)methyl)carbamoyl) cyclohexyl 4-hydroxypiperidine-1-carboxylate]",10 to 1000
4,"COc1ccc([C@H]2CC[C@H](CN(c3cc(-c4coc(C(C)(C)C)n4)ccn3)C(=O)[C@H]3CC[C@H](OC(=O)N4CC(O)C4(C)C)CC3)CC2)cc1C (stereo partly drawn) [Compound 1.05, trans-4-((4-(2-(tert-Butyl)oxazol-4-yl)pyridin-2-yl)(((trans)-4-(4-methoxy-3-methylphenyl)cyclohexyl)methyl)carbamoyl) cyclohexyl 3-hydroxy-2,2-dimethylazetidine-1-carboxylate]",10 to 1000
5,"COc1ccc(C23CCC(CN(c4cc(-c5cnn(C(C)(C)C)c5)ccn4)C(=O)[C@H]4CC[C@H](OC(=O)N5CC(O)C5)CC4)(CC2)CC3)cc1C [Compound 3, 4-((4-(1-(tert-Butyl)-1H-pyrazol-4-yl)pyridin-2-yl)((4-(4-methoxy-3-methylphenyl)bicyclo[2.2.2]octan-1-yl)methyl)carbamoyl)cyclohexyl 3-hydroxyazetidine-trans-1-carboxylate]",≤ 10
6,"COc1ccc(C23CCC(CN(c4cc(-c5coc(C(C)(C)C)n5)ccn4)C(=O)[C@H]4CC[C@H](OC(=O)NCCCO)CC4)(CC2)CC3)cc1C [Compound 2, 4-((4-(2-(tert-Butyl)oxazol-4-yl)pyridin-2-yl)((4-(4-methoxy-3-methylphenyl)bicyclo[2.2.2]octan-1-yl)methyl)carbamoyl) (trans-cyclohexyl) (3-hydroxypropyl)carbamate]",≤ 10
7,"COc1ccc(C23CCC(CN(c4cc(-c5coc(C(C)(C)C)n5)ccn4)C(=O)[C@H]4CC[C@H](OC(=O)N5CCC(O)CC5)CC4)(CC2)CC3)cc1C [Compound 2.17, 4-((4-(2-(tert-Butyl)oxazol-4-yl)pyridin-2-yl)((4-(4-methoxy-3-methylphenyl)bicyclo[2.2.2]octan-1-yl)methyl)carbamoyl)cyclohexyl 4-hydroxypiperidine- trans-1-carboxylate]",≤ 10
8,"COc1ccc(C23CCC(CN(c4cc(-c5cnn(C(C)(C)C)c5)ccn4)C(=O)[C@H]4CC[C@H](OC(=O)N5CC[C@@H](O)C5)CC4)(CC2)CC3)cc1C [Compound 2.33, (R)-4-((4-(1-(tert-Butyl)-1H-pyrazol-4-yl)pyridin-2-yl)((4-(4-methoxy-3-methylphenyl)bicyclo[2.2.2]octan-1-yl)methyl)carbamoyl) cyclohexyl trans-3-hydroxypyrrolidine-1-carboxylate]",≤ 10
9,"COc1ccc(C23CCC(CN(c4cc(-c5cnn(C(C)(C)C)c5)ncn4)C(=O)[C@H]4CC[C@H](OC(=O)N5CC(O)C5)CC4)(CC2)CC3)cc1C [Compound 2.36, 4-((6-(1-(tert-Butyl)-1H-pyrazol-4-yl)pyrimidin-4-yl)((4-(4-methoxy-3-methylphenyl)bicyclo[2.2.2]octan-1-yl)methyl)carbamoyl) (trans-cyclohexyl) 3-hydroxyazetidine-1-carboxylate]",10 to 1000
10,"COc1ccc(C23CCC(CN(c4cc(-c5coc(C(C)(C)C)n5)ccn4)C(=O)[C@H]4CC[C@H](OC(=O)N5CCC(N(C)C)C5)CC4)(CC2)CC3)cc1C (stereo partly drawn) [Compound 2.16, 4-((4-(2-(tert-Butyl)oxazol-4-yl)pyridin-2-yl)((4-(4-methoxy-3-methylphenyl)bicyclo[2.2.2]octan-1-yl)methyl)carbamoyl)cyclohexyl 3-(dimethylamino)pyrrolidine- trans-1-carboxylate]",10 to 1000
11,"COc1ccc(C23CCC(CN(c4cc(-c5cnn(C(C)(C)C)c5)ccn4)C(=O)[C@H]4CC[C@H](OC(=O)N5CC(OCCO)C5)CC4)(CC2)CC3)cc1C [Compound 2.25, 4-((4-(1-(tert-Butyl)-1H-pyrazol-4-yl)pyridin-2-yl)((4-(4-methoxy-3-methylphenyl)bicyclo[2.2.2]octan-1-yl)methyl)carbamoyl) (trans-cyclohexyl) 3-(2-hydroxyethoxy)azetidine-1-carboxylate]",≤ 10
12,"COc1ccc(C23CCC(CN(c4cc(-c5coc(C(C)(C)C)n5)ccn4)C(=O)[C@H]4CC[C@H](OC(=O)N5CC(OCCO)C5)CC4)(CC2)CC3)cc1C [Compound 2.14, 4-((4-(2-(tert-Butyl)oxazol-4-yl)pyridin-2-yl)((4-(4-methoxy-3-methylphenyl)bicyclo[2.2.2]octan-1-yl)methyl)carbamoyl) (trans-cyclohexyl) 3-(2-hydroxyethoxy)azetidine-1-carboxylate]",≤ 10
13,"COc1ccc(C23CCC(CN(c4cc(-c5cnn(C(C)(C)C)c5)ccn4)C(=O)[C@H]4CC[C@H](OC(=O)N5CC(CS(C)(=O)=O)C5)CC4)(CC2)CC3)cc1C [Compound 2.24, 4-((4-(1-(tert-Butyl)-1H-pyrazol-4-yl)pyridin-2-yl)((4-(4-methoxy-3-methylphenyl)bicyclo[2.2.2]octan-1-yl)methyl)carbamoyl) (trans-cyclohexyl) 3-((methylsulfonyl)methyl) azetidine-1-carboxylate]",≤ 10

# Now from value to compound:
row,EC50 [nM],Compound
1,≤ 10,"CCC(C)(C)n1cc(-c2ccnc(N(CC34CCC(c5ccc(OC)c(C)c5)(CC3)CC4)C(=O)[C@H]3CC[C@H](OC(=O)N4CC(C)(O)C4)CC3)c2)cn1 [Compound 4.01, 4-(((4-(4-Methoxy-3-methylphenyl)bicyclo[2.2.2]octan-1-yl)methyl)(4-(1-(tert-pentyl)-1H-pyrazol-4-yl)pyridin-2-yl)carbamoyl) cyclohexyl trans-3-hydroxy-3-methylazetidine-1-carboxylate]"
2,10 to 1000,"COc1ccc(C23CCC(CN(c4cc(-c5ccn(C(C)(C)C)n5)ccn4)C(=O)[C@H]4CC[C@H](OC(=O)N5CC(O)C5)CC4)(CC2)CC3)cc1C [Compound 4.10, 4-((4-(1-(tert-Butyl)-1H-pyrazol-3-yl)pyridin-2-yl)((4-(4-methoxy-3-methylphenyl)bicyclo[2.2.2]octan-1-yl)methyl)carbamoyl) cyclohexyl trans-3-hydroxyazetidine-1-carboxylate]"
3,≤ 10,"CCC(C)(CC)n1cc(-c2ccnc(N(CC34CCC(c5ccc(OC)c(C)c5)(CC3)CC4)C(=O)[C@H]3CC[C@H](OC(=O)N4CC(O)C4)CC3)c2)cn1 [Compound 4.04, 4-(((4-(4-Methoxy-3-methylphenyl)bicyclo[2.2.2]octan-1-yl)methyl)(4-(1-(3-methylpentan-3-yl)-1H-pyrazol-4-yl)pyridin-2-yl)carbamoyl)cyclohexyl trans-3-hydroxyazetidine-1-carboxylate]"
4,10 to 1000,"COc1ccc(C23CCC(CN(c4cc(-n5cnc(C(C)(C)C)c5)ccn4)C(=O)[C@H]4CC[C@H](OC(=O)N5CC(O)C5)CC4)(CC2)CC3)cc1C [Compound 4.11, 4-((4-(4-(tert-Butyl)-1H-imidazol-1-yl)pyridin-2-yl)((4-(4-methoxy-3-methylphenyl)bicyclo[2.2.2]octan-1-yl)methyl)carbamoyl) cyclohexyl trans-3-hydroxyazetidine-1-carboxylate]"
5,10 to 1000,"CCC(CC)(CC)n1cc(-c2ccnc(N(CC34CCC(c5ccc(OC)c(C)c5)(CC3)CC4)C(=O)[C@H]3CC[C@H](OC(=O)N4CC(O)C4)CC3)c2)cn1 [Compound 4.08, 4-((4-(1-(3-Ethylpentan-3-yl)-1H-pyrazol-4-yl)pyridin-2-yl)((4-(4-methoxy-3-methylphenyl)bicyclo[2.2.2]octan-1-yl)methyl)carbamoyl) cyclohexyl trans-3-hydroxyazetidine-1-carboxylate]"
